Patent US20100104546A1, “MODULATORS OF ANTIGEN-DEPENDENT T CELL PROLIFERATION” (CHILDREN, YOUTH AND WOMEN'S HEALTH SERVICE, priority 2007, published 2010)

Legend:
[1] = test system: Th1 and Th2 cytokines; assay: Cytokine levels of mitogen-stimulated splenocytes, ex vivo; type: in vivo, mice; conditions: 3 days
Protocol: Mice were sensitized with SRBC and after 5 days were injected with β-oxa-21:3n-3 or vehicle intraperitoneally. After 2 h spleens were removed, cell suspensions prepared and incubated in the presence of mitogens PHA/PMA or PMA/A23187. After 3 days of incubation, the culture fluids and were harvested and used to determine the levels of Th1 and Th2 cytokines. Baseline subtracted levels of cytokines plotted in the presence of vehicle or β-oxa-21:3n-3. The values represent the mean±SEM separate experiments each conducted in quintuplets.
6-7 weeks old Balb/c mice were injected subcutaneously with 100 μl of 10% sheep red blood cells (IMVS, Inc., Adelaide, Australia) After 5 days 100 ul of β-oxa-21:3n-3 at indicated amounts were injected intraperitoneally, intravenously or gavaged orally. In another experimental set up mice were given β-tha-21:3n-3 i.p. In a third approach mice were infected subcutaneously with 100 μl of Tetanus Toxoid (2,500 Lf/ml). Then 7 days later were given β-oxa-21:3n-3. At indicated time points mice were sacrificed and spleens were removed. Single cell suspensions were prepared and white blood cells (WBC) were enriched by passing through Ficoll-Paque Plus (GE Healthcare). Cells were washed with RPMI-1640 containing 10% fetal bovine serum, 10 mM Hepes, antibiotics and glutamine (RPMI-10) and counted using an automated Cell-Dyne 3500R (Abbott, Inc. MA) instrument. Cells were viable (>98%) as judged by trypan blue exclusion. (β-oxa-21:3n-3)- or vehicle-treated mouse samples (200,000/well) were mixed either with SRBC (600,000/well) with 100 μl of Tetanus toxoid (50 Lf/ml) or phytohaemaglutinin (PHA) (2 μg/ml) or with PHA plus phorbol myristate acetate (PMA) (10 ng/ml) or with PMA plus calcium ionophore A23187 ([…]). Cells were cultured in 96 well U bottom plates (Nunc, Inc. Denmark) for 3 days (except for TT −5 days) at 37° C. under humidified air containing 5% CO2. At some instances 50 μl of supernatants were transferred to a new plate and frozen immediately at −70° C. to be used for cytokine measurements. Thymidine (50 μl, 1 μCi/well) was added at final 16 hours of culture. Cells were harvested and thymidine incorporation was determined using a beta scintillation counter.
To determine whether or not these effects were due to non-specific suppression of the immune system, we examined the production of Th1 and Th2 cytokines in mitogen-activated mononuclear leukocytes. Splenocytes from (β-oxa-21:3n-3)- or vehicle-administered pre-immune animals were cultured for 3 days in the presence of PHA-PMA or PMA-A23187. The cell culture fluids were collected and cytokines measured.

[2] = test system: Human PBMC; assay: Human lymphocyte proliferation assay, antigen (tetanus toxoid)-induced; type: cell-based
Protocol: Peripheral blood mononuclear cells were purified from the blood of normal volunteers using hypagn-ficoll density gradient separation. In the assay 100 μl of PBM (treated or untreated) at a concentration of 2×10^6/ml were stimulated by the addition of 100 μl of PHA (μg/ml) or […] 2 μg/ml TT in microtitre plates. The cultures contained 5% human blood group AB serum. The cells were incubated at 37° C. in 5% CO2-air and high humidity for 72 h or 5 days (for TT). The cultures were pulsed with 1 μl of 3H-TdR 6 h prior to harvest. The amount of radioactivity incorporated was determined to assess the degree of lymphoproliferation.
To attempt to resolve this discrepancy, we examined the sensitivity of the antigen-induced (tetanus toxoid) human lymphocyte response in vitro, under the same conditions as those in which the PHA-induced response were inhibited by β-oxa21:3n-3. Human PBMC which were known to show lymphoproliferation in response to TT were pretreated with a range of concentrations of β-oxa21:3n-3 and then stimulated with TT. Proliferation was quantitated after […] of incubation of cultures. […] Using purified human T cells which were stimulated with PHA-PMA we were able to ascertain that when β-oxa21:3n-3 was added to cells the stimulated cells contained 30 fold more β-oxa-21:3n-3 than resting T cells (FIG. 5B).

[3] = test system: spleen cells; assay: Viability and composition of splenic cells by microscopy and flow cytometry; type: in vivo, mice
Protocol: Data acquisition was performed using a BD Immunocytometry Systems four-color FACScalibur (Mountain View, Calif.), and the acquired data were analyzed using FloJo software (Tree Star Inc., Palo Alto, Calif.).
To exclude that this effect of β-oxa-21:3n-3 was not due to necrosis or apoptosis of the splenic cells, we examined the viability and composition of live splenic cells from animals treated with this fatty acid, by microscopy and flow cytometry.

[4] = test system: splenic T cells and MHC class II cells; assay: Co-culture of enriched splenic T cells and MHC class II cells, SRBC-induced proliferation; type: in vivo, mice; conditions: 80 mg/kg IP, 3 days
Protocol: (A) β-oxa-21:3n-3 (80 mg/kg) or vehicle was injected once intraperitoneally to 5 days SRBC-sensitized mice. After the indicated time period spleens were removed and cell suspensions were incubated in the presence or absence of SRBC for 3 days. Thymidine incorporation for final 16 hours of culture was determined. Percent inhibition of proliferation by β-oxa-21:3n-3 compared to vehicle injected animals are depicted against duration of exposure. (B) β-oxa-21:3n-3 (80 mg/kg) or vehicle was injected once intraperitoneally to 5 days SRBC-sensitized mice. After two hours spleens were removed and T cell and MHC II positive cells were enriched using MACS magnetic beads. As indicated, vehicle and β-oxa-21:3n-3 injected animal's enriched cells were then co-cultured in the presence or absence of SRBC for 3 days. Thymidine incorporation for final 16 h of culture was determined. Splenocytes proliferation is plotted versus the type of co-cultured cells.
In co-culture experiments negative selection purification systems were utilized to ensure isolation of untouched cells to avoid side effects on cell viability and activity. […] For accuracy in cell counts and cell viability, the enriched cells were also inspected by hemocytometer and then counted using Cell-Dyne 3500R (ABBOTT, Inc. MA) and then co-cultured. […]

[5] = test system: human lymphocytes; assay: Human lymphocyte proliferation assay, mitogen (PHA)-induced; type: cell-based; conditions: PHA-stimulated human lymphocytes, in vitro; read-out: IC50 for the PHA-stimulated response
[6] = test system: Th1, Th2 and macrophage-related cytokines; assay: Ex vivo cytokine production by antigen (SRBC)-stimulated splenocytes; type: in vivo, mice; conditions: splenocytes cultured 3 days with SRBC, IP dosing

CC/C=C\C/C=C\C/C=C\CCCCCCCCOCC(=O)O [β-oxa-21:3n-3]
IL-2 secretion ([1]; PHA-PMA-stimulated splenocytes): higher levels
levels of IL-4, IL-5, TNFα and IFNγ ([1]; PHA-PMA-stimulated splenocytes): no substantial increase
IFNγ secretion ([1]; PMA-A23187-stimulated splenocytes): reduction
cytokine secretion ([1]; PMA-A23187-stimulated splenocytes, apart from IFNγ): did not result in any substantial differences
sensitivity of antigen-induced response relative to mitogenic response ([2]; TT versus PHA IC50): 15 fold
IC50 ([2]; tetanus toxoid-stimulated human PBMC, in vitro, read-out: IC50 for the inhibition of the antigen-induced response): 2 µM
viable cells (excluded propidium iodide) ([3]; spleen cells from treated SRBC-sensitized mice): > 95%
viable cell numbers versus vehicle-treated mice ([3]; spleen cells, SRBC-sensitized mice): no major difference
splenocyte proliferation, MHC class II cells from treated animals co-cultured with T cells from either treated or vehicle animals [4]: no suppression
splenocyte proliferation, T cells from treated animals co-cultured with MHC class II cells from treated or vehicle animals [4]: suppressed
IC50 [5]: 30 µM
antigen-induced macrophage cytokine levels (MCP-1, KC, IL-12) [6]: no significant effects
antigen-stimulated Th1 cytokines (IL-2, IL-6, IFNγ and TNFα) [6]: concentration-dependent reduction
antigen-stimulated Th2 cytokines (IL-4, IL-5, IL-10 and IL-13) [6]: concentration-dependent reduction
